In patent EP4477653A1 (Perha Pharmaceuticals, priority 2023, dated 2024):
Where two headings read alike, the source gives them in different places.

Legend:
[1] = target: T1, human recombinant A3AR (expressed in HEK-293 cells) (Homo sapiens, UniProt P0DMS8); test: Adenosine receptors antagonism assay (Eurofins), [125I]-AB-MECA radioligand competition; type: binding
T1 construct: host or cells: HEK-293 cells
T1 sequence (P0DMS8 1-318): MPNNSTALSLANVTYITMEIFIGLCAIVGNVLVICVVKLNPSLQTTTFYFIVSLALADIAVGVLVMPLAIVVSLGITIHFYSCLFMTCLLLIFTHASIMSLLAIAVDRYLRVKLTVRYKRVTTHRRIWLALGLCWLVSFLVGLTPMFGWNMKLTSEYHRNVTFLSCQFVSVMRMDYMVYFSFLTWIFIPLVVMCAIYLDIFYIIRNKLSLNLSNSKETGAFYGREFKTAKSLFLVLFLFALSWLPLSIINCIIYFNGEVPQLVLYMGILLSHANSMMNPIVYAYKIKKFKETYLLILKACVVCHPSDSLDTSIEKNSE

LogD (HPLC) = type: physicochemical; conditions: by HPLC; Table 2
[2] = [125I]-AB-MECA 0.15 nM, r.t., 120 min; IC50 from dose-response curves; read-out: Potency Class A3AR
[3] = read-out: Potency Class A3AR; [125I]-AB-MECA 0.15 nM, r.t., 120 min; IC50 from dose-response curves

| SMILES | IC50 [1, 2] [nM] | chromatographic logD (LogD (HPLC)) | IC50 [1, 3] [nM] |
| --- | --- | --- | --- |
| COC1CCC(Nc2cc(NCc3ccccc3)c3nnc(C(C)C)n3n2)CC1 (racemic) [compound 120, N8-benzyl-3-isopropyl-N6-(4-methoxycyclohexyl)-[1,2,4]triazolo[4,3-b]pyridazine-6,8-diamine] | 100 to 1000 | 3.09 |  |
| CC(C)c1nnc2c(NCc3ccccc3)cc(NC3CCCCC3O)nn12 (racemic) [compound 134, racemic trans-2-[[8-(benzylamino)-3-isopropyl-[1,2,4]triazolo[4,3-b]pyridazin-6-yl]amino]cyclohexanol] |  | 2.73 | 10 to 100 |
| CC(C)c1nnc2c(NCc3ccccc3)cc(NCC3CCCO3)nn12 (racemic) [compound 142, N8-benzyl-3-isopropyl-N6-(tetrahydrofuran-2-ylmethyl)-[1,2,4]triazolo[4,3-b]pyridazine-6,8-diamine] | 100 to 1000 | 2.87 |  |
| CC(C)c1nnc2c(NCc3ccccc3)cc(NC3CCc4ccccc43)nn12 (racemic) [compound 146, N8-benzyl-N6-indan-1-yl-3-isopropyl-[1,2,4]triazolo[4,3-b]pyridazine-6,8-diamine] | 10 to 100 | 4.1 |  |
| CC(C)c1nnc2c(NCc3ccccc3)cc(N[C@H]3CC[C@H](O)CC3)nn12 [(135), racemic trans-4-[[8-(benzylamino)-3-isopropyl-[1,2,4]triazolo[4,3-b]pyridazin-6-yl]amino]cyclohexanol] |  | 2.22 |  |
| CC(C)c1nnc2c(NCc3ccccc3)cc(NC3CCC3)nn12 [compound 117, N8-benzyl-N6-cyclobutyl-3-isopropyl-[1,2,4]triazolo[4,3-b]pyridazine-6,8-diamine] | 10 to 100 | 3.47 |  |
| CC(C)c1nnc2c(NCc3ccccc3)cc(NC3CCCC3)nn12 [compound 118, N8-benzyl-N6-cyclopentyl-3-isopropyl-[1,2,4]triazolo[4,3-b]pyridazine-6,8-diamine] | 1 to 10 | 3.84 |  |
| CC(C)c1nnc2c(NCc3ccccc3)cc(NC3CCCCC3)nn12 [compound 119, N8-benzyl-N6-cyclohexyl-3-isopropyl-[1,2,4]triazolo[4,3-b]pyridazine-6,8-diamine] | 10 to 100 | 4.17 |  |
| CC(C)c1nnc2c(NCc3ccccc3)cc(NC3CCCCCC3)nn12 [compound 121, N8-benzyl-N6-cycloheptyl-3-isopropyl-[1,2,4]triazolo[4,3-b]pyridazine-6,8-diamine] | 10 to 100 | 4.57 |  |
| CC(C)c1nnc2c(NCc3ccccc3)cc(NCC3CC3)nn12 [compound 122, N8-benzyl-N6-(cyclopropylmethyl)-3-isopropyl-[1,2,4]triazolo[4,3-b]pyridazine-6,8-diamine] | 10 to 100 | 3.33 |  |
| CC(C)c1nnc2c(NCc3ccccc3)cc(NCC3CCC3)nn12 [compound 123] |  | 3.86 | 10 to 100 |
| CC(C)c1nnc2c(NCc3ccccc3)cc(NCC3CCCCC3)nn12 [compound 124, N8-benzyl-N6-(cyclohexylmethyl)-3-isopropyl-[1,2,4]triazolo[4,3-b]pyridazine-6,8-diamine] | 10 to 100 | 4.6 |  |
| CC(C)c1nnc2c(NCc3ccccc3)cc(NCC3CCOCC3)nn12 [compound 125, N8-benzyl-3-isopropyl-N6-(tetrahydropyran-4-ylmethyl)-[1,2,4]triazolo[4,3-b]pyridazine-6,8-diamine] | 100 to 1000 | 2.74 |  |
| CCC(CC)CNc1cc(NCc2ccccc2)c2nnc(C(C)C)n2n1 [compound 126, N8-benzyl-N6-(2-ethylbutyl)-3-isopropyl-[1,2,4]triazolo[4,3-b]pyridazine-6,8-diamine] | 1 to 10 | 4.42 |  |
| CC(C)c1nnc2c(NCc3ccccc3)cc(NCCc3ccccc3)nn12 [compound 127, N8-benzyl-3-isopropyl-N6-(2-phenylethyl)-[1,2,4]triazolo[4,3-b]pyridazine-6,8-diamine] | 10 to 100 | 3.78 |  |
| c1ccc(CNc2cc(N3CCCCC3)nn3c(C4CC4)nnc23)nc1 [compound 207, 3-cyclopropyl-6-(1-piperidyl)-N-(2-pyridylmethyl)-[1,2,4]triazolo[4,3-b]pyridazin-8-amine] | 100 to 1000 |  |  |
| c1ccc(CNc2cc(NCc3ccco3)nn3c(C4CC4)nnc23)nc1 [compound 208, 3-cyclopropyl-N6-(furan-2-ylmethyl)-N8-(pyridin-2-ylmethyl)-[1,2,4]triazolo[4,3-b]pyridazine-6,8-diamine] | 1 to 10 |  |  |
| c1ccc(CNc2cc(NCc3ccoc3)nn3c(C4CC4)nnc23)nc1 [compound 209, 3-cyclopropyl-N6-(furan-3-ylmethyl)-N8-(pyridin-2-ylmethyl)-[1,2,4]triazolo[4,3-b]pyridazine-6,8-diamine] | 1 to 10 |  |  |
| c1ccc(CNc2cc(NCc3cccs3)nn3c(C4CC4)nnc23)nc1 [compound 210, 3-cyclopropyl-N8-(pyridin-2-ylmethyl)-N6-(thiophen-2-ylmethyl)-[1,2,4]triazolo[4,3-b]pyridazine-6,8-diamine] | 1 to 10 |  |  |
| CC[C@H](CO)Nc1cc(NCc2ccccn2)c2nnc(C3CC3)n2n1 [compound 211, (R)-2-((3-cyclopropyl-8-((pyridin-2-ylmethyl)amino)-[1,2,4]triazolo[4,3-b]pyridazin-6-yl)amino)butan-1-ol] | 10 to 100 |  |  |
| CC[C@@H](CO)Nc1cc(NCc2ccccn2)c2nnc(C3CC3)n2n1 [compound 212, (S)-2-((3-cyclopropyl-8-((pyridin-2-ylmethyl)amino)-[1,2,4]triazolo[4,3-b]pyridazin-6-yl)amino)butan-1-ol] | 10 to 100 |  |  |
| c1ccc(CNc2cc(N[C@@H]3CCOC3)nn3c(C4CC4)nnc23)nc1 [compound 213, (R)-3-cyclopropyl-N8-(pyridin-2-ylmethyl)-N6-(tetrahydrofuran-3-yl)-[1,2,4]triazolo[4,3-b]pyridazine-6,8-diamine] | 100 to 1000 |  |  |
| c1ccc(CNc2cc(N[C@@H]3CCCOC3)nn3c(C4CC4)nnc23)nc1 [compound 214, (R)-3-cyclopropyl-N8-(pyridin-2-ylmethyl)-N6-(tetrahydro-2H-pyran-3-yl)-[1,2,4]triazolo[4,3-b]pyridazine-6,8-diamine] | 100 to 1000 |  |  |
| CCC(CC)Nc1cc(Nc2ccc(OC)nn2)c2nnc(C3CC3)n2n1 [compound 215, 3-cyclopropyl-N8-(6-methoxypyridazin-3-yl)-N6-(pentan-3-yl)-[1,2,4]triazolo[4,3-b]pyridazine-6,8-diamine] | < 1 |  |  |
| CCC(CC)Nc1cc(NCc2cccnn2)c2nnc(C3CC3)n2n1 [compound 216, 3-cyclopropyl-N6-(pentan-3-yl)-N8-(pyridazin-3-ylmethyl)-[1,2,4]triazolo[4,3-b]pyridazine-6,8-diamine] | 1 to 10 |  |  |
| CCC(CC)Nc1cc(NCCc2ccccc2)c2nnc(C3CC3)n2n1 [compound 217, 3-cyclopropyl-N6-(pentan-3-yl)-N8-phenethyl-[1,2,4]triazolo[4,3-b]pyridazine-6,8-diamine] | 1 to 10 |  |  |
| c1ccc(CNc2cc(NCc3ccsc3)nn3c(C4CC4)nnc23)nc1 [compound 218, 3-cyclopropyl-N8-(pyridin-2-ylmethyl)-N6-(thiophen-3-ylmethyl)-[1,2,4]triazolo[4,3-b]pyridazine-6,8-diamine] | 1 to 10 |  |  |
